Publication PMC11833736 (ACS Pharmacology & Translational Science, 2025)
Where “and” joins values, the source holds several entries; their conditions need not be identical. Equal entries are not always repeated.

What was measured:
SH-SY5Y cells [1] = assay: Intracellular Ca content by ICP-MS, dark or green light; format: cell-based; details: kept in the dark
Description: Six hours after compound addition, the cells were irradiated with green light or kept in the dark. Intracellular Ca^2+ levels were then assessed by ICP-MS 24 h after light activation. The NMDA and α-amino-3-hydroxy-5-methyl-4-isoxazole propionic acid (AMPA) receptors being glutamate-gated cation channels allow for an increase of calcium permeability of the neuron membrane; we also used L-glutamic acid (GA, 10 μM), a known NMDA and AMPA activator, as positive control in this assay.
(§1) 1 mL of SH-SY5Y cells were seeded in 12-well plates (Greiner, No. 665180; 500.000 cells per well). […] After an additional 24 h of incubation, the cells were trypsined, collected, and centrifuged. The resulting cell pellet was dissolved in 1 mL of PBS and counted via a BioRad TC20 automated cell counter. Afterward, the solution was centrifuged and washed again with PBS with subsequent centrifuging two more times. The resulting cell pellet was digested in 0.5 mL of HNO3 overnight in a hot oven (90 °C). The solution was diluted with Milli-Q water to 10 mL, and the Ru and Ca content [ppb] was measured via ICP-MS.

SH-SY5Y cells [2] = assay: Cytotoxicity, SRB end-point assay, dark or green light; format: cell-based
U-87MG cells = assay: Ru cellular uptake by ICP-MS; format: in vitro ADME; details: 10 μM; for Ru cellular uptake: dark
Source text: The cellular accumulation of Ru^2+ can provide additional information about how differences in anticancer efficacy may relate to the amount of the Ru prodrug in the cell before light activation. For instance, low uptake often leads to limited cytotoxicity due to limited access to the drug target. […] Similar results have been observed in A549 lung cancer cells previously.[56] […] For unknown reasons, it appears that the amine bridge in the i-diqa ligand facilitates the uptake of ruthenium compound [3](PF6)2.
Materials: 65% nitric acid (Suprapur, Merck) was used in the sample digestion process, while diluted 1% nitric acid (v/v) was employed as a carrying solution throughout the ICP measurements. For preparation of calibration and internal standards, National Institute of Standards and Technology (NIST)-traceable 1000 mg/L elemental standards were used (TraceCERT, Fluka). Approximately 18 MΩ cm^–1 water (Milli-Q) was employed in all sample preparation and analysis steps.
Instrumentation: Calibration standards were prepared in a Secuflow fume hood (SCALA) to prevent contamination by atmospheric particulates. The standard samples and measurement samples were analyzed for trace elements using the NexION 2000 (PerkinElmer) ICP-MS instrument equipped with a concentric glass nebulizer and a Peltier-cooled glass spray chamber. An SC2 DX autosampler (PerkinElmer) was connected to ICP-MS for sample introduction. Syngistix software for ICP-MS (v.2.5, PerkinElmer) was used for all data recording and processing. Five trace elemental calibration standards for ICP-MS analysis were prepared using NIST-traceable 1000 mg/L Ru standards: 0, 1, 5, 20, and 100 μg/L. Samples were analyzed without dilution in the original delivery containers to minimize the possibility of contamination. Here, 10 μg/L Rh and In were used as internal standards. To check the calibration, samples were analyzed with a blank measurement and a repeat measurement with one of the calibration standards.
Sample preparation: 1 mL of U-87MG cells were seeded in 12-well plates (Greiner, No. 665180; 400.000 cells per well). […] Afterward, the cells were trypsined, collected, and centrifuged. The resulting cell pellet was dissolved in 1 mL of PBS and counted via a BioRad TC20 automated cell counter. Afterward, the solution was centrifuged and washed again with PBS with subsequent centrifuging. This washing step was repeated twice. The resulting cell pellet was digested in 0.5 mL of 65% HNO3 overnight in a hot oven (90 °C). The solution was diluted with Milli-Q water to 10 mL, and the Ru content [ppb] was measured by ICP-MS.

SH-SY5Y cells [3] = assay: Ru cellular uptake by ICP-MS, dark or green light; format: in vitro ADME; details: 20 μM, kept in the dark
Description: These surprising results led us to further investigate whether the uptake of the respective compounds plays a pivotal role in the alternation of the proliferation. […] The complex was allowed to incubate for 24 h after irradiation before the ruthenium cellular content was analyzed by ICP-MS. […] We finally decided to incubate the SH-SY5Y cells with the EC50 values obtained from the cytotoxicity experiment using the U-87MG cell, as those procedures would allow one to observe the effect of the prodrug on the healthy neuron-like cells when treated with the phototoxic compound dose. […] Overall, cellular uptake in neuron-like SH-SY5Y cells followed the same trends as those for GBM cells U-87MG in the dark, while uptake was much higher after light activation.
as §1

AChE = AChE (Electrophorus electricus, UniProt O42275)
Source text: Among all enzymes involved in transmembrane signaling, another important one is AChE. In a modified procedure (for further details, see the Experimental Section), we checked whether the ruthenium complexes were able to inhibit AChE in the dark and after light activation. The colorimetric assay used Ellman’s reagent. […] The conversion of 5,5′-dithiobis(2-nitrobenzoic acid) (DTNB) to yellow 2-nitro-5-thiobenzoate (TNB) initiated by the addition of acetylthiocholine was then detected by UV–vis spectroscopy every 5 min for a total time of […]. […] The solution was further diluted 1:50 in 50 mM Tris buffer, pH = 8 (10 μL in 490 μL), and then placed in 4.5 mL of 50 mM Tris buffer, pH = 8. […] 50 μL of the enzyme and 50 μL of the complex solution were added to a 96-well plate in triplicates. […] Meanwhile, a 10 mM solution of acetylthiocholine iodide and 10 mM DTNB was prepared. After the respective time, in each well, 5 μL of the acetylthiocholine iodide and DTNB mixture was added. The absorbance was read at a microplate Tecan reader at 410 nm every 5 min for in total 40 min.

[4] = Stability in the dark in the presence of L-glutathione (UV-vis); format: physicochemical; details: water, 37 °C, 500 μM L-glutathione, spectra after 2 and 24 h
Description: The synthesis and characterization of all three complexes have been described earlier and can be found in refs ([56]) and ([57]). In water or OptiMEM cell medium, the complexes were also previously found to be stable in the dark for at least 24 h at 37 °C. Upon blue or green light irradiation (λ = 452 or 517 nm), they are activated by photosubstitution of the thioether ligand to afford the aqua ruthenium complex and the free thioether ligand.[56] […] The UV–vis spectra were then recorded after 2 and 24 h separately. […] Additionally, we could not observe any color change, which is typical when one of the ligands is exchanged against another one.
UV–vis spectroscopy experiments were performed on a Cary 60 Varian spectrometer equipped with a temperature control set to 310 K and a magnetic stirrer. The measurements were performed in a quartz cuvette containing 3 mL of solution. […] Then, the UV–vis spectrum was recorded without the presence of GSH. After 4 min, GSH was added (0.5 mM) and UV–vis spectra were recorded directly after and after 2 and 24 h, while the vial was kept in the dark and at 37 °C.

[5] = test system: U-87MG glioblastoma cells; assay: Cytotoxicity, SRB end-point assay, dark or green light; details: read-out: EC50,D, kept in the dark, 24 h + 48 h incubation, normoxic (21% O2)
A375 skin melanoma = test system: A375 skin melanoma; set-up: method as in PMID 31625740, PMID 29220545, PMID 34378103; details: cited from earlier work
[6] = test system: A549 lung cancer cell lines; set-up: method as in PMID 31625740, PMID 29220545, PMID 34378103; details: cited from earlier work
[7] = test system: U-87MG glioblastoma cells; assay: Cytotoxicity determined by MTT (3 mg/mL); format: cell-based; details: Homo sapiens, dark

Chain of AChE (O42275 24-633): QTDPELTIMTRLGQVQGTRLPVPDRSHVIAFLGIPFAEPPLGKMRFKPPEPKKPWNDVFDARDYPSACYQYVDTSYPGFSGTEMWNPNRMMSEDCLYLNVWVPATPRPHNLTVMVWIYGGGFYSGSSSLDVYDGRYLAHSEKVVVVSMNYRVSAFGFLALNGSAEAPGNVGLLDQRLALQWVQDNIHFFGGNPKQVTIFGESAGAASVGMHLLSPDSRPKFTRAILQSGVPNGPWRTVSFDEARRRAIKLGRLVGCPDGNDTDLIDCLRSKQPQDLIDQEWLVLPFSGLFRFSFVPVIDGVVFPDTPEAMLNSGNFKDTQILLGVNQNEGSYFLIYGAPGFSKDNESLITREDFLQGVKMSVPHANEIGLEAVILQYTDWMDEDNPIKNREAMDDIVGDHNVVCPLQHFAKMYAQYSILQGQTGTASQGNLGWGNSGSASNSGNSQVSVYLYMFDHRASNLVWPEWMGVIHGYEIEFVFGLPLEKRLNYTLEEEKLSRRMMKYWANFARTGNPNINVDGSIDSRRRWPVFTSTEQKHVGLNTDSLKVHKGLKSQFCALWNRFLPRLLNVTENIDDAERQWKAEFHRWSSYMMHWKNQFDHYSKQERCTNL

N[C@@H](CCC(=O)O)C(=O)O [L-glutamic acid, reference compound]
Ca uptake, Dark (SH-SY5Y cells [1]; 10 μM): 322.84± 53 ng Ca/mio. cells
Ca uptake, Dark (SH-SY5Y cells [1]; 10 μM, listed as Glutamate): 322 ng Ca/mio. cells

CSCCO.F[P-](F)(F)(F)(F)F.F[P-](F)(F)(F)(F)F.[Ru+2].c1ccc(-c2cccc(-c3ccccn3)n2)nc1.c1ccc(-c2ccccn2)nc1 [[1](PF6)2]
concentration required to block cell growth (SH-SY5Y cells [2]; in the dark): > 40 µM
EC50 (SH-SY5Y cells [2]; kept in the dark, SRB, normoxic (21% O2)): > 100 µM
Uptake in % (U-87MG cells; 6 h): 0.56%
Ru cellular uptake (U-87MG cells; 6 h incubation): 0.6 ng Ru/mio. cells and 0.60 ± 0.38 ng Ru/mio. cells
Uptake in % (U-87MG cells; 24 h): 0.43%
Ru cellular uptake (U-87MG cells; 24 h incubation): 0.42 ng Ru/mio. cells and 0.42 ± 0.11 ng Ru/mio. cells
overall uptake (U-87MG cells; one figure given for 6 and 24 h): 0.5%
Ru uptake, Dark (SH-SY5Y cells [3]): 0.40 ± 0.25 ng Ru/mio. cells and 0.4 ng Ru/mio. cells
Ca uptake, Dark (SH-SY5Y cells [1]; 20 μM): 467.78 ± 122 ng Ca/mio. cells and 467 ng Ca/mio. cells
PI (AChE; AChE, IC50 dark / IC50 green light): >2.2
IC50 (AChE; read-out: IC50,D, isolated AChE, 30 min in the dark, read 35 min after DTNB addition): > 15 µM
stability in the dark with GSH (UV-vis, in words) [4]: no change suggesting ligand exchange on ruthenium was observed
EC50 [5]: > 100 µM

O.[Ru+2].c1ccc(-c2cccc(-c3ccccn3)n2)nc1.c1ccc(-c2ccccn2)nc1 [[4]^2+, [Ru(tpy)(bpy)(OH2)]^2+]
toxicity (in words) (A375 skin melanoma): nontoxic
toxicity (in words) [6]: nontoxic

Cn1nnc2c(C(N)=O)ncn2c1=O [temozolomide]
EC50 [7]: > 100 µM
